Results as given in publication PMC6213879, “Synthesis and Biological Evaluation of Novel Dehydroabietic Acid-Oxazolidinone Hybrids for Antitumor Properties” (International Journal of Molecular Sciences, 2018).

Experiments:
MGC-803 cells [1] = experiment: Apoptosis analysis, Annexin-V/FITC and PI, flow cytometry; type: cell-based, human; details: 48 h, control 9.3%
Procedure: In order to further confirm whether the 4j-induced reduction in cell viability was responsible for the induction of apoptosis, MGC-803 cells were investigated using the PI and Annexin-V/FITC (fluorescein isothiocyanate) and the number of apoptotic cells was estimated by flow cytometry, after the treatment of the MGC-803 cells at concentrations of 5 and 10 µM for 48 h. The results are illustrated in Figure 2.
MGC-803 cells were seeded at a concentration of 2 × 10^6 cells/mL of the DMEM medium with 10% FBS on 6-well plates to the final volume of 2 mL, and then treated with compound 4j at different concentrations for 48 h. After 48 h, the cells were collected and washed twice with PBS and then resuspended in 100 µL 1 × binding buffer, The cells were subjected to 5 µL of FITC Annexin V and 5 µL propidium iodide (PI) staining using an annexin-V FITC apoptosis kit (BD, Pharmingen) and incubated for 30 min at RT (25 °C) in the dark. Then, 100µL 1× binding buffer were added. The apoptosis ratio was quantified by system software (Cell Quest; BD Biosciences, Becton Dickinson FACSAriaIII, NY, USA).

[2] = system: human normal liver cell line LO2; experiment: MTT cytotoxicity assay, normal LO2 cells; type: cell-based; details: Homo sapiens, L02, 48 h, mean ± SD from three independent experiments
Procedure: (§1) The in vitro antiproliferative activity of the DHAA derivatives 3a–o and 4a–o against four human cancer cell lines (MGC-803 human gastric cancer cell line, CNE-2 human nasopharyngeal carcinoma cell line, SK-OV-3 human ovarian carcinoma cell line, NCI-H460 human lung cancer cell line) and the human normal liver cell line LO2 were evaluated by MTT (methyl thiazolytetrazolium) assay and compared with the parent compound DHAA and the positive control cisplatin in each panel.
(§2) The cytotoxicity of the compounds was evaluated against NCI-H460, MGC-803, SK-OV-3, CNE-2 and LO2 using an MTT assay. Cells were grown on 96-well micro-plates at a density of 4 × 10^3 cells per well in DMEM (dulbecco’s modified eagle medium) medium with 10% FBS (fetal bovine serum). The plates were incubated at 37 °C with 5% CO2. The cells were then exposed to different concentrations of target compounds and cisplatin and incubated for another 48 h. Control wells were formed by culture media with the maximum concentration of DMSO used in each assay (1‰). The cells were stained with 20 µL of MTT in an incubator for about 4 h. The medium was thrown away and replaced by […] DMSO. The absorbance (OD) value was read at 490 nm on an enzyme labeling instrument. Each experiment was repeated at least three times to obtain the mean values.

[3] = system: SK-OV-3 human ovarian carcinoma cell line; experiment: MTT cytotoxicity assay, SK-OV-3; type: cell-based; details: Homo sapiens, SK-OV-3, 48 h, mean ± SD from three independent experiments
Procedure: as §1, §2

[4] = system: MGC-803 human gastric cancer cell line; experiment: MTT cytotoxicity assay, MGC-803; type: cell-based; details: Homo sapiens, MGC-803, 48 h, mean ± SD from three independent experiments
Procedure: as §1, §2

[5] = system: CNE-2 human nasopharyngeal carcinoma cell line; experiment: MTT cytotoxicity assay, CNE-2; type: cell-based; details: Homo sapiens, CNE-2, 48 h, mean ± SD from three independent experiments
Procedure: as §1, §2

MGC-803 cells [6] = experiment: Cell cycle analysis by PI staining and flow cytometry; type: cell-based, human; details: MGC-803, 48 h
Procedure: To determine the possible role of cell cycle arrest in 4j-induced growth inhibition, MGC-803 cells were treated with different concentrations of compound 4j for 48 h. The cell cycle distribution was investigated by flow cytometric analysis following the staining of DNA with propidium iodide (PI).
The MGC-803 cell line was treated with different concentrations of compound 4j. After 48 h of incubation, cells were washed twice with ice-cold PBS, fixed and permeabilized with ice-cold 70% ethanol at −20 °C overnight. The cells were treated with 100 µg /mL RNase A at 37 °C for 30 min, after being washed with ice-cold PBS, and finally stained with 1 mg/mL propidium iodide (PI) (BD, Pharmingen) in the dark at 4 °C for 30 min. Analysis was performed with the system software (Cell Quest; BD Biosciences, Becton Dickinson FACSAriaIII, NY, USA).

[7] = system: MGC-803, CNE-2, SK-OV-3, NCI-H460; experiment: MTT cytotoxicity assay, summary over the four cancer cell lines; type: cell-based; details: Homo sapiens; range over MGC-803, CNE-2, SK-OV-3, NCI-H460; read-out: IC50 values ranging against all the test cell lines
Procedure: as §1, §2

[8] = system: NCI-H460 human lung cancer cell line; experiment: MTT cytotoxicity assay, NCI-H460; type: cell-based; details: Homo sapiens, NCI-H460, 48 h, mean ± SD from three independent experiments
Procedure: as §1, §2

MGC-803 cells [9] = experiment: Hoechst 33258 staining assay; type: cell-based, human; details: 48 h
Procedure: Hoechst 33258 is a dye that is utilized to identify the transitions of a cell’s nuclear morphology. To determine the morphological changes induced by compound 4j in MGC-803 cells, Hoechst 33258 staining was carried out. MGC-803 cells were treated with various concentrations (0, 1.0, 5.0, 10 µM) of compound 4j for 48 h, and stained with Hoechst 33258.
Cells grown on a sterile cover slip in six-well plates were treated with different concentrations of the test compound for 48 h. The culture medium containing compounds was removed, and the cells were fixed in 4% paraformaldehyde for 10 min. After being washed twice with PBS, the cells were stained with 0.5 mL of Hoechst 33258 (Beyotime, Shanghai, China) for 5 min, and then again washed twice with PBS. The stained nuclei were observed under an OLYMPUS 1X73 fluorescence microscope using 350 nm for excitation and 460 nm for emission.

melting point: 112.8 to 117.5 °C
SMILES: CC(C)c1ccc2c(c1)CCC1[C@](C)(C(=O)OCC3CN(c4ccc(F)cc4)C(=O)O3)CCC[C@]21C (stereo partly drawn) [Compound 4j, (1R,4aS)-(3-(4-Fluorophenyl)-2-Oxooxazolidin-5-yl)Methyl-7-Isopropyl-1,4a-Dimethyl-1,2,3,4,4a,9,10,10a-Octahydrophenanthrene-1-Carboxylate]
percentage of all apoptotic cells (early and late) (MGC-803 cells [1]; 5 µM): 28.5%
percentage of all apoptotic cells (early and late) (MGC-803 cells [1]; 10 µM): 34.3%
IC50 [2]: > 100 µM
IC50 [3]: 4.66 ± 2.13 µM
IC50 [4]: 3.82 ± 0.18 µM
IC50 [5]: 17.8 ± 4.69 µM
cell cycle arrest (MGC-803 cells [6]): mainly arrested the MGC-803 cells in the G1 phase
IC50 [7]: 3.82 to 17.8 µM
IC50 [8]: 8.44 ± 0.36 µM
nuclear morphological changes (Hoechst 33258) (MGC-803 cells [9]; 10.0 µM): number of apoptotic nuclei significantly increased
nuclear morphological changes (Hoechst 33258) (MGC-803 cells [9]; 1.0 and 5.0 µM): some exhibited bright-blue fluorescence due to chromatin condensation
